US11014911B2, “CDK2 inhibitors” (Pfizer Inc., priority 2019, dated 2021)

Target: CDK2/Cyclin E1 full length (Homo sapiens (Human), UniProt P24941)
Assay: CDK2/Cyclin E1 full length mobility shift assay
Assay type: biochemical

Row | SMILES | Ki [nM]
1 | Cc1ncc(CC(=O)Nc2cc([C@H]3CC[C@@H](OC(=O)NC(C)C)C3)[nH]n2)s1 [Example 2, (1R,3S)-3-(3-{[(2-methyl-1,3-thiazol-5-yl)acetyl]amino}-1H-pyrazol-5-yl)cyclopentyl propan-2-ylcarbamate] | 0.31
2 | Cc1cc(CC(=O)Nc2cc([C@H]3CC[C@@H](OC(=O)NC(C)C)C3)[nH]n2)no1 [Example 269, (1R,3S)-3-(3-{[(5-methyl-1,2-oxazol-3-yl)acetyl]amino}-1H-pyrazol-5-yl)cyclopentyl propan-2-ylcarbamate] | 1.68
3 | COCCn1nccc1C(=O)Nc1cc([C@H]2CC[C@@H](OC(=O)N3CC[C@H]3C)C2)[nH]n1 [Example 593, (1R,3S)-3-[3-({[1-(2-methoxyethyl)-1H-pyrazol-5-yl]carbonyl}amino)-1H-pyrazol-5-yl]cyclopentyl (2R)-2-methylazetidine-1-carboxylate] | 2.21
4 | CC[C@H](C)NC(=O)O[C@@H]1CC[C@H](c2cc(NC(=O)Cc3ccccc3S(N)(=O)=O)n[nH]2)C1 [Example 49] | 0.19
5 | CC1(NC(=O)O[C@@H]2CC[C@H](c3cc(NC(=O)CC4COc5ccccc54)n[nH]3)C2)CCOC1 (single isomer, unassigned) [Example 490] | 3.68
6 | CCCNC(=O)O[C@@H]1CC[C@H](c2cc(NC(=O)Cc3ccccc3S(C)(=N)=O)n[nH]2)C1 (single isomer, unassigned) [Example 201] | 1.91
7 | CC(C)(C)NC(=O)O[C@@H]1CC[C@H](c2cc(NC(=O)Cc3cnn(CC(F)(F)F)n3)n[nH]2)C1 [Example 318, (1R,3S)-3-[3-({[2-(2,2,2-trifluoroethyl)-2H-1,2,3-triazol-4-yl]acetyl}amino)-1H-pyrazol-5-yl]cyclopentyl tert-butylcarbamate] | 0.53
8 | CC[C@H](C)NC(=O)O[C@@H]1CC[C@H](c2cc(NC(=O)Cc3cn4ccc(C)nc4n3)n[nH]2)C1 [Example 357, (1R,3S)-3-(3-{[(7-methylimidazo[1,2-a]pyrimidin-2-yl)acetyl]amino}-1H-pyrazol-5-yl)cyclopentyl (2S)-butan-2-ylcarbamate] | 4.08
9 | CC1(NC(=O)O[C@@H]2CC[C@H](c3cc(NC(=O)Cc4cscn4)n[nH]3)C2)CC1 [Example 423, (1R,3S)-3-{3-[(1,3-thiazol-4-ylacetyl)amino]-1H-pyrazol-5-yl}cyclopentyl (1-methylcyclopropyl)carbamate] | 0.6
10 | COc1cc(CC(=O)Nc2cc([C@@H]3CC[C@H](OC(=O)NC4CCOCC4)C3)[nH]n2)ccn1 [Example 503, (1S,3R)-3-(3-{[(2-methoxypyridin-4-yl)acetyl]amino}-1H-pyrazol-5-yl)cyclopentyl tetrahydro-2H-pyran-4-ylcarbamate] | 2.13
11 | CCCNC(=O)O[C@H]1CC[C@@H](c2cc(NC(=O)Cc3cn4c(C)c(C)sc4n3)n[nH]2)C1 [Example 200, (1S,3R)-3-(3-{[(2,3-dimethylimidazo[2,1-b][1,3]thiazol-6-yl)acetyl]amino}-1H-pyrazol-5-yl)cyclopentyl propylcarbamate] | 2.87
12 | CC[C@H](C)NC(=O)O[C@@H]1CC[C@H](c2cc(NC(=O)Cc3nnc(C)s3)n[nH]2)C1 [Example 344, (1R,3S)-3-(3-{[(5-methyl-1,3,4-thiadiazol-2-yl)acetyl]amino}-1H-pyrazol-5-yl)cyclopentyl (2S)-butan-2-ylcarbamate] | 0.58
13 | Cc1cnc(CC(=O)Nc2cc([C@H]3CC[C@@H](OC(=O)NC4(C)CCOCC4)C3)[nH]n2)o1 [Example 508, (1R,3S)-3-(3-{[(5-methyl-1,3-oxazol-2-yl)acetyl]amino}-1H-pyrazol-5-yl)cyclopentyl (4-methyltetrahydro-2H-pyran-4-yl)carbamate] | 1.46
14 | CC1(NC(=O)O[C@@H]2CC[C@H](c3cc(NC(=O)Cc4ccc(F)cn4)n[nH]3)C2)CC1 [Example 430, (1R,3S)-3-(3-{[(5-fluoropyridin-2-yl)acetyl]amino}-1H-pyrazol-5-yl)cyclopentyl (1-methylcyclopropyl)carbamate] | 1.14
15 | Cc1ncc(CC(=O)Nc2cc([C@H]3CC[C@@H](OC(=O)NCC(F)(F)F)C3)[nH]n2)s1 [Example 254, (1R,3S)-3-(3-{[(2-methyl-1,3-thiazol-5-yl)acetyl]amino}-1H-pyrazol-5-yl)cyclopentyl (2,2,2-trifluoroethyl)carbamate] | 2.17
16 | C[C@H]1CCCN1C(=O)O[C@@H]1CC[C@H](c2cc(NC(=O)Cc3ccccn3)n[nH]2)C1 [Example 630, (1R,3S)-3-{3-[(pyridin-2-ylacetyl)amino]-1H-pyrazol-5-yl}cyclopentyl (2S)-2-methylpyrrolidine-1-carboxylate] | 1.43
17 | CCCNC(=O)O[C@@H]1CC[C@H](c2cc(NC(=O)Cc3ccccc3S(=O)(=O)C3CC3)n[nH]2)C1 [Example 210, (1R,3S)-3-[3-({[2-(cyclopropylsulfonyl)-phenyl]acetyl}amino)-1H-pyrazol-5-yl]cyclopentyl propylcarbamate] | 3.8
18 | CC[C@H](C)NC(=O)O[C@@H]1CC[C@H](c2cc(NC(=O)Cc3ncc(C)s3)n[nH]2)C1 [Example 341, (1R,3S)-3-(3-{[(5-methyl-1,3-thiazol-2-yl)acetyl]amino}-1H-pyrazol-5-yl)cyclopentyl (2S)-butan-2-ylcarbamate] | 0.64

Row | SMILES | Ki [nM]
19 | CC1(NC(=O)O[C@@H]2CC[C@H](c3cc(NC(=O)Cc4cc(C(F)F)ccn4)n[nH]3)C2)CC1 [Example 443, (1R,3S)-3-[3-({[4-(difluoromethyl)pyridin-2-yl]acetyl}amino)-1H-pyrazol-5-yl]cyclopentyl (1-methylcyclopropyl)carbamate] | 0.36
20 | Cc1cn(CC(=O)Nc2cc([C@H]3CC[C@@H](OC(=O)NC(C)(C)C)C3)[nH]n2)nn1 [Example 297, (1R,3S)-3-(3-{[(4-methyl-1H-1,2,3-triazol-1-yl)acetyl]amino}-1H-pyrazol-5-yl)cyclopentyl tert-butylcarbamate] | 1.17
21 | COc1cc(CC(=O)Nc2cc([C@H]3CC[C@@H](OC(=O)NCC(F)(F)F)C3)[nH]n2)ccn1 [Example 255, (1R,3S)-3-(3-{[(2-methoxypyridin-4-yl)acetyl]amino}-1H-pyrazol-5-yl)cyclopentyl (2,2,2-trifluoroethyl)carbamate] | 1.69
22 | O=C(Cc1ccc(C(F)(F)F)nc1)Nc1cc([C@@H]2CC[C@H](OC(=O)NC[C@H]3C[C@H](O)C3)C2)[nH]n1 [Example 577, (1S,3R)-3-[3-({[6-(trifluoromethyl)pyridin-3-yl]acetyl}amino)-1H-pyrazol-5-yl]cyclopentyl[(trans-3-hydroxycyclobutyl)methyl]-carbamate] | 3.36
23 | CC(C)NC(=O)O[C@H]1CC[C@@H](c2cc(NC(=O)Cc3ccccn3)n[nH]2)C1 [Example 264, (1S,3R)-3-{3-[(pyridin-2-ylacetyl)amino]-1H-pyrazol-5-yl}cyclopentyl propan-2-ylcarbamate] | 1.83
24 | Cc1csc(CC(=O)Nc2cc([C@H]3CC[C@@H](OC(=O)NC(C)C)C3)[nH]n2)n1 [Example 274, (1R,3S)-3-(3-{[(4-methyl-1,3-thiazol-2-yl)acetyl]amino}-1H-pyrazol-5-yl)cyclopentyl propan-2-ylcarbamate] | 2.62
25 | CC1(NC(=O)O[C@@H]2CC[C@H](c3cc(NC(=O)CC4COc5ccccc54)n[nH]3)C2)CCOC1 (single isomer, unassigned) [Example 492] | 2.39
26 | O=C(Cc1cc(F)cc(F)c1)Nc1cc([C@@H]2CC[C@H](OC(=O)NC[C@H]3C[C@@H]3CO)C2)[nH]n1 [Example 579, (1S,3R)-3-(3-{[(3,5-difluorophenyl)acetyl]amino}-1H-pyrazol-5-yl)cyclopentyl {[(1S,2S)-2-(hydroxymethyl)cyclopropyl]-methyl}carbamate] | 2.41
27 | CC(C)NC(=O)O[C@@H]1CC[C@H](c2cc(NC(=O)Cc3ccc(C(F)(F)F)cn3)n[nH]2)C1 [Example 286, (1R,3S)-3-[3-({[5-(trifluoromethyl)pyridin-2-yl]acetyl}amino)-1H-pyrazol-5-yl]cyclopentyl propan-2-ylcarbamate] | 4.14
28 | COc1cc(CC(=O)Nc2cc([C@@H]3CC[C@H](OC(N)=O)C3)[nH]n2)ccn1 [Example 257, (1S,3R)-3-(3-{[(2-methoxypyridin-4-yl)acetyl]amino}-1H-pyrazol-5-yl)cyclopentyl carbamate] | 4.2
29 | Cc1cnc(CC(=O)Nc2cc([C@H]3CC[C@@H](OC(=O)NC4(C)CC4)C3)[nH]n2)cc1Cl [Example 131] | 0.2
30 | CC(C)NC(=O)O[C@@H]1CC[C@H](c2cc(NC(=O)c3cncn3C)n[nH]2)C1 [Example 260, (1R,3S)-3-(3-{[(1-methyl-1H-imidazol-5-yl)carbonyl]amino}-1H-pyrazol-5-yl)cyclopentyl propan-2-ylcarbamate] | 2.89
31 | Cc1cnc(CC(=O)Nc2cc([C@H]3CC[C@@H](OC(=O)NC(C)(C)C)C3)[nH]n2)s1 [Example 303, (1R,3S)-3-(3-{[(5-methyl-1,3-thiazol-2-yl)acetyl]amino}-1H-pyrazol-5-yl)cyclopentyl tert-butylcarbamate] | 0.33
32 | CN1CC(CNC(=O)O[C@H]2CC[C@@H](c3cc(NC(=O)Cc4cc(F)cc(F)c4)n[nH]3)C2)OCC1=O (single isomer, unassigned) [Example 584] | 3.84
33 | CC(C)(C)NC(=O)O[C@@H]1CC[C@H](c2cc(NC(=O)Cc3cc(C(F)(F)F)ccn3)n[nH]2)C1 [Example 316, (1R,3S)-3-[3-({[4-(trifluoromethyl)pyridin-2-yl]acetyl}amino)-1H-pyrazol-5-yl]cyclopentyl tert-butylcarbamate] | 1.3
34 | Cc1ccnc(CC(=O)Nc2cc([C@H]3CC[C@@H](OC(=O)NC4(C)CC4)C3)[nH]n2)c1Cl [Example 441, (1R,3S)-3-(3-{[(3-chloro-4-methylpyridin-2-yl)acetyl]amino}-1H-pyrazol-5-yl)cyclopentyl (1-methylcyclopropyl)carbamate] | 1.42
35 | CC[C@H](C)NC(=O)O[C@@H]1CC[C@H](c2cc(NC(=O)Cc3ccc(C(F)(F)F)cn3)n[nH]2)C1 [Example 360, (1R,3S)-3-[3-({[5-(trifluoromethyl)pyridin-2-yl]acetyl}amino)-1H-pyrazol-5-yl]cyclopentyl (2S)-butan-2-ylcarbamate] | 1.46
